Key:
[1] = system: HPV containing cell lines as HeLa, SiHa and Caski, compared to HPV-negative cell lines MCF7, HEPG2, (HaCat, HT3, 444); experiment: Cell viability (WST1 assay), panel of HPV-positive and HPV-negative cell lines; format: cell-based, human; conditions: for WST1: 50 μM in cell culture; for WST1-spec: 50 μM, HPV containing vs HPV-negative cell lines
Method: Zinc finger proteins are required for maintenance of cell viability. Preferably, the compounds for use in the present invention are specific in their ability to affect the viability of MPV containing cells, with little or no cytotoxic effects on the cellular functioning of healthy non-MPV containing cells. The viability of MPV-infected cells (and non infected cells) in the presence of compounds of Formulae (I) or (II) can be measured by incubating with the tetrazolium salt WST1 (Roche Molecular Biochemicals, Manneheim Germany) and measuring the absorption readings thereof (WST1 assay).
All cell lines were obtained from the American Type Culture Collection (Manassas, Va.) unless otherwise noted. SiHa (human cervical epithelial tumor line, HPV16-positive), CaSki (human cervical epithelial tumor line, HPV16-positive), HaCat (immortalized human skin epithelial cell line, HPV-negative), HeLa (human cervical epithelial tumor line, HPV18-positive), 444 (hybrid of HeLa and fibroblast, HPV18-positive) obtained from Eric Stanbridge (Universitv of California, Irvine), MCF7 (human mammary epithelial tumor cell line, HPV-negative), HT3 (human cervical epithelial tumor cell line, HPV-negative) was obtained from the German Cancer Research Institute/DKFZ-Heidelberg, and HepG2, (human liver epithelial tumor cell line, HPV-negative), were grown in Dulbecco's modified Eagle medium (DMEM) supplemented with 10% fetal calf serum, 100 U penicillin and 1000 U streptomycin. Cells were allowed to attach to the surface of microwell dishes overnight and subsequently, incubated with medium containing the zinc ejecting compounds at the concentrations (10–100 μM). Viability of the cells was scored by measuring the absorption of the tetrazolium salt WST1 (Roche Molecular Biochemicals, Mannheim, Germany) in an Elisa-plate reader (Tecan, Salzburg, Austria) at a wavelength of 450 nm and a reference wavelength of 630 nm.
A total of 10 000 cells per well were plated on 24 well plates, after attachment overnight, they were treated 3 times in 3 days with C16 at 10 μM and 50 μM. The activity of C16 was also compared with that of C4 (azodicarbonamide) which causes ejection of zinc from HIV-1 NCp7 and is currently used in clinical trials for the treatment of AIDS.

[2] = biological target: T1, HPV-16-E6 (recombinant GST-E6 protein) (Human papillomavirus type 16, UniProt P03126); experiment: biochemical; format: biochemical; conditions: read-out: TSQ % (% values of Zinc release)
T1 construct: The full length HPV16 E6 gene was amplified via polymerase chain reaction and cloned in the vector pGeX4T2; made in house; host or cells: E. coli strain AB1899
T1 sequence (P03126 whole entry): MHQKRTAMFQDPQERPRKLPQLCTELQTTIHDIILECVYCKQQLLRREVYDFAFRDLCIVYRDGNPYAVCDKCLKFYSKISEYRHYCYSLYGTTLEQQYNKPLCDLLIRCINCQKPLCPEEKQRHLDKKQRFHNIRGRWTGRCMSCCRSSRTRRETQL
Excerpt: Where the chelated metal is zinc, zinc release can be measured as an increase in the fluorescence of the zinc-selective fluorophore TSQ (N-(6-methoxy-8-quinolyl)-p-toluenesulfonamide) (18) in the presence of the protein and the active compound (TSQ assay).
In such an assay, the increase in fluorescence measured can be described as a percentage of the increase in fluorescence observed for a positive control compound which provides 100% zinc release. A suitable positive control compound is H2O2. Preferred compounds which may be useful in the present invention are those which release at least 30% of the chelated zinc as measured by the TSQ assay. Particularly preferred compounds for use in the present invention are those which release at least 40% of the chelated zinc, more preferably at least 50%.
In earlier studies, reduced glutathione (GSH) was required to elute recombinant glutathione sulfhydryl transferase E6 (recombinant (GST-E6)) protein during the purification process. However, the reducing activity of the GSH sulfhydryl groups protected GST-E6 protein from the chemical attack by agents, such as the disulphide based organic compounds of Formula (I) and (II). […] Individual assays were done in the presence of 9 μg GST-E6 protein, corresponding to a concentration of 1 μM GST-E6 protein and 2 μM bound zinc, assuming the presence of two Zn ions per protein.
Release of zinc from HPV-16-E6 was monitored by the change in fluorescence of the zinc-selective fluorophore TSQ (N-6-methoxy-8-quinolyl)-p-toluenesulfonamide), (Molecular Probes, Eugene, Oreg.) by modification of published procedures (25, 26, 27). In a total reaction volume of 200 μl, 9 μg (1 μM) recombinant GST-E6 protein (corresponding to a concentration of 1 μM), bound to glutathione-sepharose beads, were incubated with 10 μM of each compound or 0.6% (170 mM) H2O2 in TSQ-assay buffer (10 mM sodium phosphate buffer pH7.0, 10% glycerol) for 2 hours at room temperature (200 μl total volume in 96-well plates). Immediately after addition of 100 μM TSQ, the increase in fluorescence was measured on a SLT Fluostar (355 nm excitation filter and 460 nm emission filter, Tecan, Salzburg).
Values given are % values of Zinc release. The relative fluorescence units (RFU) were normalized to the amount of zinc released by H2O2 (regarded as 100%). The concentration of compound used was 10 μM for C27–C35, 13 μM for C37–C83, H2O2 was used at 0.3% for C27–C35 and 0.2% for C37–C83.

[3] = biological target: T2, binding of E6 with E6AP and E6BP (Human papillomavirus type 16, UniProt P03126); parameters: species or system HPV-16; conditions: for BIACORE (E6BP/E6AP): 400 μM compound, 2 hrs at room temperature, GST-E6 7 μM in 10 mM GSH; for complex formation of GST-E6 with GST-E6AP/GST-E6BP, controls: 5 mM EDTA or 0.6% (170 mM) H2O2, 2 hrs at room temperature
T2 construct: The full length HPV16 E6 gene was amplified via polymerase chain reaction and cloned in the vector pGeX4T2; made in house; host or cells: E. coli strain AB1899
T2 sequence (P03126 whole entry): as above
Excerpt: BIACORE allows real time analysis of bimolecular interactions without the need for isotopic or enzymatic labelling. BIACORE technology is based on the optical surface plasmon resonance (SPR), a technique that allows for detecting small changes in the refractive index on the surface of a thin gold film coated with a dextran matrix. Typically, one of the binding partners (termed the ligand) is covalently linked to the dextran matrix, while the other partner (termed the analyte) is introduced in a flow passing over the surface. The change in refractive index resulting from the interaction of the molecules is expressed in resonance units (RU): a SPR response of 1000 RU corresponds to a change of the surface concentration of the analyte of 1 ng protein/mm^2. GST-E6AP and GST-E6BP were used as ligands and GSTE6 was used as the analyte. […] Further controls included using the dextran matrix alone or GST as the ligand.
Binding of GST-E6 to GST-E6BP, GST-E6AP and GST was monitored by surface plasmon resonance (SPR) on a BIACORE 2000 machine (Biacore AB, Uppsala, Sweden). […] Typically 6000–10000 RU of GST, E6BP and E6AP were immobilized on three difference flowcells. Aliquots of purified HPV-16 GST-E6 (7 μM in 10 mM GSH, 50 mM Tris/PBS buffer, pH 8.2) were incubated with either 400 μM compound, or 5 mM EDTA, or 0.6% (170 mM) H2O2 for 2 hrs at room temperature. Then 10 μl of sample was injected at 1 μl/min over the three immobilized ligands using the sequential flow mode. The interactions between GST-E6 and ligands were monitored by the change of resonance signal in arbitrary units (RU).

SMILES	WST1 [1]	WST1-spec [1]	activation at 13 µM [2] [%]	BIACORE (E6BP/E6AP) [3]	complex formation of GST-E6 with GST-E6AP/GST-E6BP, controls [3]	activation at 10 µM [2] [%]	growth inhibition ([1]; any of these six cell lines (FIG. 3))
COc1ccc(N2CCN(SSN3CCN(c4ccc(OC)cc4)CC3)CC2)cc1 [Compound C71]	+	+	0	–	–	–	–
C1CN(SSN2CCSCC2)CCS1 [Compound C38]	+	+	41.8	+ (compound interferes in binding of E6 with E6AP and E6BP, binding is less than 50% of the corresponding E6-DMSO value.)	–	–	–
O=C(O)CN(CCN(CC(=O)O)CC(=O)O)CC(=O)O [EDTA, reference compound]	–	–	–	–	completely eliminated complex formation	–	–
S=C(SSC(=S)N1CCOCC1)N1CCOCC1 [Compound C32]	–	–	–	+ (compound interferes in binding of E6 with E6AP and E6BP, binding is less than 50% of the corresponding E6-DMSO value.)	–	80.9	–
CCOC(=O)CN(Cc1ccccc1)SSN(CC(=O)OCC)Cc1ccccc1 [Compound C83]	+	–	22	+ (compound interferes in binding of E6 with E6AP and E6BP, binding is less than 50% of the corresponding E6-DMSO value.)	–	–	–
O=C1c2ccccc2C(=O)N1SSN1C(=O)c2ccccc2C1=O [Compound C27]	+	–	–	+ (compound interferes in binding of E6 with E6AP and E6BP, binding is less than 50% of the corresponding E6-DMSO value.)	–	103	–
NC(=O)N=NC(N)=O [Compound C4, azodicarbonamide, reference compound]	–	–	–	–	–	–	did not cause growth inhibition
CCN(CC)SSN(CC)CC [Compound C49]	+	–	57	+ (compound interferes in binding of E6 with E6AP and E6BP, binding is less than 50% of the corresponding E6-DMSO value.)	–	–	–
CC1CN(SSN2CC(C)OC(C)C2)CC(C)O1 (centres unmarked) [Compound C37]	+	+	40.3	+ (compound interferes in binding of E6 with E6AP and E6BP, binding is less than 50% of the corresponding E6-DMSO value.)	–	–	–
O=[N+]([O-])c1ccc(N2CCN(SSN3CCN(c4ccc([N+](=O)[O-])cc4)CC3)CC2)cc1 [Compound C69]	–	–	0	+ (compound interferes in binding of E6 with E6AP and E6BP, binding is less than 50% of the corresponding E6-DMSO value.)	–	–	–
C1CCN(SSN2CCCC2)C1 [Compound C42]	+	–	50.5	+ (compound interferes in binding of E6 with E6AP and E6BP, binding is less than 50% of the corresponding E6-DMSO value.)	–	–	–
CN1CCCN(C(=S)SSC(=S)N2CCCN(C)CC2)CC1 [Compound C35]	+	–	–	–	–	106	–
C1CCN(SSN2CCCCC2)CC1 [Compound C48]	+	+	54.3	+ (compound interferes in binding of E6 with E6AP and E6BP, binding is less than 50% of the corresponding E6-DMSO value.)	–	–	–
CC1(C)COCN1SSN1COCC1(C)C [Compound C82]	+	–	28.4	+ (compound interferes in binding of E6 with E6AP and E6BP, binding is less than 50% of the corresponding E6-DMSO value.)	–	–	–
CC1CN1SSN1CC1C (centres unmarked) [Compound R25]	–	–	–	+ (compound interferes in binding of E6 with E6AP and E6BP, binding is less than 50% of the corresponding E6-DMSO value.)	–	30.9	–
CCOC(=O)N1CCN(SSN2CCN(C(=O)OCC)CC2)CC1 [Compound C41]	+	+	36.8	+ (compound interferes in binding of E6 with E6AP and E6BP, binding is less than 50% of the corresponding E6-DMSO value.)	–	–	–
c1ccc(N2CCN(SSN3CCN(c4ccccn4)CC3)CC2)nc1 [Compound C55]	+	+	50.6	+ (compound interferes in binding of E6 with E6AP and E6BP, binding is less than 50% of the corresponding E6-DMSO value.)	–	–	–
C1CN1SSN1CC1 [Compound R24]	+	–	–	+ (compound interferes in binding of E6 with E6AP and E6BP, binding is less than 50% of the corresponding E6-DMSO value.)	–	71	–
OO [Compound H2O2, H2O2, reference compound]	–	–	–	–	completely eliminated complex formation	–	–
CN1CCN(SSN2CCN(C)CC2)CC1 [Compound C39]	+	+	45	+ (compound interferes in binding of E6 with E6AP and E6BP, binding is less than 50% of the corresponding E6-DMSO value.)	–	–	–
O=CN(SSN(C=O)C1CCCCC1)C1CCCCC1 [Compound R26]	+	–	–	+ (compound interferes in binding of E6 with E6AP and E6BP, binding is less than 50% of the corresponding E6-DMSO value.)	–	54.9	–
